This note sets out measurements from patent publication US20080090788A1, “Chemical Compounds” (priority 2005, published 2008).

The test system of one test is IkB-α. Description: IkB-α phosphorylation and degradation by immunoblotting in LPS-stimulated U937 cells. The test is classed as cell-based, human. The note with it: 30 minutes after LPS; for effect on IkB-α phosphorylation and degradation: 1 hour pretreatment. On the procedure: Western blotting was performed as previously described (Brimmell M, Burns J S, Munson P, et al. High level expression of differentially localized BAG-1 isoforms in some oestrogen receptor-positive human breast cancers. Br J Cancer 1999; 81: 1042-51). IkB-α and phospho-Ser32 specific IkB-α antibodies were from Cell Signaling Technology (Hitchin, UK). The PARP antibody (C2-10 clone) was from R&D Systems (Abingdon, UK).
To determine the kinetics of modulation of IkB-α by LPS, U937 cells were treated with LPS for up to 120 minutes and total IkB-α and phosphorylated IkB-αanalysed by immunoblotting. There was a rapid accumulation of phosphorylated IkB-α, accompanied by IkB-α degradation (FIG. 3a). To confirm that the enhanced NF-kB inhibitory activity of compounds 3a, 3e and 3f was due to increased inhibition of IKK, we pretreated cells with these compounds and then stimulated them with LPS. IkB-α was analysed at 30 minutes after the addition of LPS because it was possible to monitor both phosphorylation and degradation at this time. […] Therefore, the improved NF-kB inhibitory activity of compounds 3a, 3e and 3f is associated with effective inhibition of IkB-α phosphorylation.
(A) U937-kBluc cells were treated with LPS for the indicated times and expression of total IkB-α and phosphorylated IkB-α determined by immunoblotting. (B) U937-kBluc cells were pretreated with the indicated concentrations of compounds or left untreated. After 1 hour, cells were stimulated with LPS. Control cells were cultured in the absence of LPS. Cells were harvested after 30 minutes and the expression of total IkB-α and phosphorylated IkB-α determined by immunoblotting. The signals were quantified by digital image analysis and the fold increase in IkB-α phosphorylation and percent expression of total IkB-α relative to control cells is shown.

In the next test the test system is CLL cells. Description: CLL apoptosis by PARP cleavage. The note with it: 6 hours; for PARP cleavage in CLL cells compared with SFZ: 0.5 mM, three patient samples. The test is classed as cell-based, human. As to the method: CLL apoptosis was quantified by analysing PARP which is cleaved by effector caspases during apoptosis. CLL cells isolated from three individual patients were recovered from storage in liquid nitrogen and cultured at a density of 1.25×10^6 cells in 1 ml of growth medium (RPMI 1640, 10% (v/v) FCS and antibiotics). After 1 hour, […] were treated with compounds. Cells were harvested 6 hours after addition of compound, resuspended in 1×SDS-PAGE sample buffer and sonicated prior to immunoblot analysis for PARP expression as described below. PARP cleavage was quantified by determining the amount of cleaved PARP as a percentage of total PARP expression by digital image analysis.
The ability of SFZ and the analogues to induce CLL apoptosis was analysed. CLL cells from 3 individual patients were treated with SFZ for 6 hours and apoptosis was quantified by analysing PARP cleavage. […] The amount of apoptosis induced by SFZ and compounds 3a and 3f (at 0.5 mM) was compared.
(A) CLL cells from three different patients were cultured in the presence of SFZ or compounds 3a and 3f (all at 0.5 mM), or DMSO as a solvent control. After 6 hours, the degree of PARP cleavage was determined as a measure of apoptosis. […] Note that compound 3f was not tested in cells from patient 3. (B) HSC were cultured in the presence of SFZ (1 mM), compounds 3a (0.150 mM), 3e (0.127 mM), 3f (0.089 mM), or DMSO as a solvent control. Analogues were used at the concentration that gave 50% inhibition of NF-kB transcriptional activity in U937 cells. After 20 hours, the proportion of apoptotic cells were visualised by acridine orange staining. Apoptotic cells were counted in five fields in duplicate for each concentration, in two independent experiments and results expressed as mean ±SEM,

Another test relates to TIMP1 promoter. Description: TIMP1 promoter luciferase activity in transfected activated HSC. The test is classed as cell-based. The note with it: SFZ 1 mM, 3a 0.150 mM, 3e 0.127 mM, 3f 0.089 mM, 24 hours, rat HSC. On the procedure: For HSC transfections, activated HSC were transfected by the non-liposomal Effectene protocol (Qiagen, UK) using 1 μg reporter plasmid DNA and 10 ng of control Renilla plasmid pRLTK (Promega, Southampton, UK) according to the manufacturer's instructions. After 24 hours, HSC were treated with test compounds for a further 24 hours. Luciferase assays were performed using a dual luciferase kit (Promega) according to the manufacturer's instructions. Firefly luciferase activities were normalised for differences in transfection efficiency by measurement of the activity of the co-transfected pRLTK. The pIκBα wt-Luc plasmid contains nucleotides −332 to +35 of the human IkB-α promoter cloned upstream of luciferase gene (Oakley F, et al, J Biol Chem 2003; 278: 24359-70). The pTIMP1-Luc plasmid contains the 162 bp human TIMP1 minimal promoter cloned upstream of luciferase gene (Bertrand-Philippe M, et al. J Biol Chem 2004; 279: 24530-9). The pAP1-Luc plasmid (Stratagene, UK) contains 7 copies of a consensus AP-1 binding site upstream of the minimal promoter and the luciferase gene.
To extend these findings, further analyses were performed using the […] promoter which contains multiple NF-kB binding sites and is a well studied NF-kB target. […] Consistent with the presence of activated NF-kB in HSC, (Wright M C et al, Gastroenterology 2001; 121: 685-98.) the IkB-α promoter was activated in HSC (FIG. 2a). SFZ (1 mM) inhibited promoter activity by >60%. […] Therefore, the improved inhibitory activity of analogues 3a, 3e and 3f is specific for NF-kB mediated transcription and is not restricted to U937 cells or artificial promoter constructs.
Rat HSC were transfected with (A) IkB-α-Luc, (B) TIMP1-Luc or (C) pAP-1-Luc reporter constructs. After 24 hours, cells were treated with sulfasalazine (1 mM), 3a (0.150 mM), 3e (0.127 mM), 3f (0.089 mM), or treated with DMSO as a control. Luciferase activity was determined after another 24 hours. Data presented are mean luciferase activity (±SEM) relative to control cells (value set to 100), derived from two separate experiments, each performed in duplicate and using an independent preparation of HSC.

In the case of `COc1ccc(CNS(=O)(=O)c2ccc(/N=N/c3ccc(O)c(C(=O)O)c3)cc2)cc1` [Compound 3a, 2-hydroxy-5-[4-(4-methoxy-benzylsulfamoyl)-phenylazo]-benzoic acid], the “effect on IkB-α phosphorylation and degradation” value was “partially effective” with IkB-α (200 μM); “prevented IkB-α phosphorylation and degradation” with IkB-α (500 μM). In the test with CLL cells, the “PARP cleavage in CLL cells compared with SFZ” value is listed as “induced more PARP cleavage than SFZ”. In addition, the “effect on TIMP1 promoter activity” value in the test on TIMP1 promoter is given as “neither SFZ or the analogues interfered with TIMP1 promoter activity”.

Turning to `Cc1cc(/N=N/c2ccc(S(=O)(=O)NCc3ccc(C(F)(F)F)cc3)cc2)cc(C(=O)O)c1O` [Compound 3e, 2-hydroxy-3-methyl-5-[4-(4-trifluoromethyl-benzylsulfamoyl)-phenylazo]-benzoic acid], the “effect on IkB-α phosphorylation and degradation” value in the test with IkB-α (200 μM) was “partially effective”; with IkB-α (500 μM) it was “prevented IkB-α phosphorylation and degradation”. In addition, the “effect on TIMP1 promoter activity” value with TIMP1 promoter was “neither SFZ or the analogues interfered with TIMP1 promoter activity”.

`O=C(O)c1cc(/N=N/c2ccc(S(=O)(=O)NCc3ccc(C(F)(F)F)cc3)cc2)ccc1O` [Compound 3f, 2-hydroxy-5-[4-(4-trifluoromethyl-benzylsulfamoyl)-phenylazo]-benzoic acid]: the “effect on IkB-α phosphorylation and degradation” value in the test on IkB-α (200 μM) was “partially effective”; in the test on IkB-α (500 μM) it was “prevented IkB-α phosphorylation and degradation”. Moreover, the “PARP cleavage in CLL cells compared with SFZ” value with CLL cells was “induced more PARP cleavage than SFZ”. In the test with TIMP1 promoter, the “effect on TIMP1 promoter activity” value was “neither SFZ or the analogues interfered with TIMP1 promoter activity”.

Consider `O=C(O)c1cc(/N=N/c2ccc(S(=O)(=O)Nc3ccccn3)cc2)ccc1O` [SFZ, Sulfasalazine, reference compound], for which the “effect on regulation of IkB-α” value in the test on IkB-α (1 mM) is on record as “only very modest effects”. Also, the “induction of apoptosis (PARP cleavage) in CLL cells” value with CLL cells (cells from 3 patients, dose response) is recorded as “induced dose dependent apoptosis”. For the same compound, the “effect on TIMP1 promoter activity” value in the test with TIMP1 promoter is “neither SFZ or the analogues interfered with TIMP1 promoter activity”.
